# Reference: patent US20190282673A1, “STAPHTAME ACTIVITY ON BIOFILMS” (priority 2016, published 2019)
# Values joined by “and” are separate entries in the source; they are usually repeats but may differ in a detail not shown here. Equal values may be shown once. Read-outs that look alike come from different tables or passages of the source.
# Assays:
# [1] = test system: S. epidermidis biofilms; experiment: MBIC and checkerboard synergy on preformed biofilm (MTT assay); type: cell-based, Staphylococcus epidermidis; settings: for MBIC (drug alone): 6 hr treatment; for MBIC: S. epidermidis ATCC 12228 biofilm
# Protocol: The ability of P128 to inhibit growth of S. aureus in a preformed biofilm was measured by determining minimum biofilm inhibition concentration (MBIC), defined as minimum concentration showing growth inhibition in a MTT based assay. Since P128 kills Staphylococcus cultures rapidly, it was expected to show a rapid effect on biofilms as well. Paul, et al. (2011) “A novel bacteriophage Tail-Associated Muralytic Enzyme (TAME) from Phage K and its development into a potent antistaphylococcal protein” BMC Microbiol. 11:226.
# Culture conditions were optimized for reproducibly obtaining a robust biofilm of S. epidermidis in 96 well microtitre plates. For this purpose, biofilms were generated in microtiter plates and the surface-adhered cultures remaining after washing off the planktonic cells were analyzed at the end of 72 h by MTT dye assay. Briefly, an overnight-grown culture of the S. epidermidis strain was diluted 1:40 in LB broth. 200 μL of diluted culture was aliquoted into microtiter plate wells. Microplates were placed in a shaker-incubator set to 37° C., and 100 rpm for 24 h followed by 48 h incubation under static conditions at 37° C. The contents of wells were aspirated and discarded. Wells were washed twice with 1×PBS and the presence of biofilm in the wells at the end of 72-hour period was determined by metabolic dye-reduction assay method using MTT (3-(4,5-dimethylthiazol-2-yl)-2,5-diphenyltetrazolium bromide; Himedia). In this assay, live cells reduce the dye leading to color formation which can be read at 570 nm and the intensity of color can be correlated to number of live cells.
# (§1) […] LB supplemented with 50 μg/mL Ca^++ was used for daptomycin treatment wells. The contents of the well was aspirated out and discarded. The biofilm adhered to the wells was quantified by MTT assay as described above. In each experiment, in addition to the combination MBIC, the MBIC of each drug was also determined individually. The fractional MBIC concentrations were determined by MTT dye method as described above. The FICI and synergy was calculated.
# [2] = test system: S. aureus COL; type: in vivo, BALB/c mice; settings: P128 0.2 mg/kg ip single dose, or both
# Protocol: A standard mouse model of S. aureus bacteremia was used. Zuluaga, et al. (2006) “Neutropenia induced in out bred mice by a simplified low-dose cyclophosphamide regimen: Characterization and applicability to diverse experimental models of infectious diseases” BMC Infect. Dis. 6:55-64. Female BALB/c mice of 8-9 weeks age were challenged by intraperitoneal route with S. aureus COL at 10^9 CFU per animal. After the bacterial challenge, animals were treated through parenteral routes with P128 alone or P128 in combination with standard of care antibiotics (e.g., vancomycin, daptomycin, linezolid, oxacillin, etc.). Animals were monitored for survival for a period of 72 hours. In this model of infection, normal as well as immunocompromised (neutropenia induced by cyclophosphamide) mice were used to evaluate P128 and antibiotic-P128 combinations.
# Eight to nine weeks old female BALB/c mice were challenged intraperitoneally with 10^9 CFU of S. aureus COL. At 2 hours post-infection, animals were treated with either P128 at 0.2 mg/kg via intraperitoneal route, or vancomycin at 55 mg/kg by subcutaneous route, or a combination of both by respective routes. Groups treated with only vancomycin or combination of P128 and vancomycin were administered a second dose of vancomycin 12 hours after the first dose.
# In the same model, efficacy of daptomycin in combination with P128 was evaluated. At 2 hours post-infection, animals were treated with either P128 at 0.2 mg/kg administered by intraperitoneal route, or daptomycin at 12.5 mg/kg administered by subcutaneous route; or a combination of both administered by respective routes. Groups treated with only daptomycin or combination of P128 and daptomycin were administered a second dose of daptomycin 12 hours after the first daptomycin dose.
# [3] = test system: S. haemolyticus B9511 biofilms; experiment: MBIC and checkerboard synergy on preformed biofilm (MTT assay); type: cell-based; settings: S. haemolyticus B9511 72 h preformed biofilm, 6 hr treatment
# Protocol: as §1
# [4] = test system: S. lugdunensis B9510 biofilms; experiment: as above; type: cell-based; settings: S. lugdunensis B9510 72 h preformed biofilm, 6 hr treatment
# Protocol: as §1
# [5] = test system: S. aureus biofilm; experiment: Bactericidal activity on biofilm (CFU reduction); type: cell-based, Staphylococcus aureus; settings: for Reduction in CFU counts: S. aureus MW2 biofilm on catheters, P128 8 μg/mL, daptomycin 10 μg/mL, vancomycin 15 μg/mL
# Protocol: In order to determine whether P128 could also act as a bactericidal agent in biofilms, the CFU reduction were monitored in S. aureus ATCC 29213 72 h preformed biofilms treated with various concentrations of P128 for 6 h. For CFU enumeration in catheter biofilm, the catheters were removed from the tubes, rinsed twice in PBS and placed in eppendorf tubes containing 1 mL PBS. To release the adhered biofilm into PBS, the catheters were scraped using inoculation loop. The samples were vortexed thoroughly and plated on LB agar plates.
# [6] = test system: S. epidermidis B9470 persisters; experiment: P128 and antibiotic activity on persisters (CFU); type: cell-based, Staphylococcus epidermidis; settings: 1×MIC, P128 1 h, antibiotics 6 h
# Protocol: Persisters were generated as above were treated with P128 and antibiotics (Ref: Gutiérrez, et al. (2014) Effective Removal of Staphylococcal Biofilms by the Endolysin LysH5 PLoS One 9(9): e107307).
# To 450 μL aliquots, P128. Daptomycin and Vancomycin (in saline) were added (individually) each at 1×MIC Conc., and another 450 μL aliquot was taken as control. The persister samples treated with P128 were incubated for 1 h, 37° C., and 200 rpm and those treated with antibiotics were incubated for 6 h, 37° C., and 200 rpm. After incubation samples were serially log diluted and plated.
# [7] = S. epidermidis B9470 72 h preformed biofilm
# [8] = S. epidermidis B9471 72 h preformed biofilm
# [9] = S. epidermidis B9472 72 h preformed biofilm
# [10] = S. aureus COL, Daptomycin 12.5 mg/kg sc 2 doses, 24 mice per group
# [11] = S. aureus COL 10^9 CFU ip, Vancomycin 55 mg/kg sc 2 doses, 26 mice per group
Molecule,"MBIC (drug alone) [1, 7]","MBIC (drug alone) [1, 8] [µg/mL]","MBIC (drug alone) [1, 9] [µg/mL]","Survival at 72 h post infection [2, 10] [%]",MBIC (drug alone) [3],MBIC (drug alone) [4],Reduction in CFU counts [5],CFU/mL after treatment of persisters ([6]; B9470 Daptomycin persisters),CFU/mL after treatment of persisters ([6]; B9470 Vancomycin persisters),"Survival at 72 h post infection [2, 11] [%]",MBIC ([1]; 4 h) [µg/mL],MBIC ([1]; 6 h) [µg/mL],MBIC ([1]; 8 h) [µg/mL],MBIC ([1]; 24 h) [µg/mL],"Cells killed ([5]; S. aureus ATCC 29213 72 h biofilm, P128 7.8 μg/mL, 6 h) [%]","Cell killing ([5]; S. aureus ATCC 29213 72 h biofilm, P128 greater than 31 μg/mL, 6 h) [%]"
"CCCCCCCCCC(=O)N[C@@H](Cc1c[nH]c2ccccc12)C(=O)N[C@H](CC(N)=O)C(=O)N[C@@H](CC(=O)O)C(=O)N[C@@H]1C(=O)NCC(=O)N[C@@H](CCCN)C(=O)N[C@@H](CC(=O)O)C(=O)N[C@H](C)C(=O)N[C@@H](CC(=O)O)C(=O)NCC(=O)N[C@H](CO)C(=O)N[C@@H]([C@H](C)CC(=O)O)C(=O)N[C@@H](CC(=O)c2ccccc2N)C(=O)O[C@@H]1C [Daptomycin, daptomycin]",15.6 µg/mL,15.6,7.8,45,>250 µg/mL,15.6 µg/mL,1 log,1.3 × 10^6 CFU/mL,2.1 × 10^2 CFU/mL,,,,,,,
"CC(=O)NC[C@H]1CN(c2ccc(N3CCOCC3)c(F)c2)C(=O)O1 [Linezolid, linezolid]",7.8 µg/mL,250,250,,>250 µg/mL,125 µg/mL,,,,,,,,,,
"CN[C@H](CC(C)C)C(=O)N[C@H]1C(=O)N[C@@H](CC(N)=O)C(=O)N[C@H]2C(=O)N[C@H]3C(=O)N[C@H](C(=O)N[C@H](C(=O)O)c4cc(O)cc(O)c4-c4cc3ccc4O)[C@H](O)c3ccc(c(Cl)c3)Oc3cc2cc(c3O[C@@H]2O[C@H](CO)[C@@H](O)[C@H](O)[C@H]2O[C@H]2C[C@](C)(N)[C@H](O)[C@H](C)O2)Oc2ccc(cc2Cl)[C@H]1O [Vancomycin, vancomycin]",7.8 µg/mL,250,250,,>250 µg/mL,250 µg/mL,no significant effect,5 × 10^5 CFU/mL,1.5 × 10^3 CFU/mL,46,,,,,,
"P128: anti-staphylococcal chimeric protein: phage tail associated muralytic enzyme (TAME) cell wall-degrading region plus staphylococcus-specific binding region; SEQ ID NO: 1 (protein, P128 chimera) MSLDSLKKYNGKLPKHDPSFVQPGNRHYKYQCTWYAYNRRGQLGIPVPLWGDAADWIGGAKGAGYGVGRTPKQGACVIWQRGVQGGSPQYGHVAFVEKVLDGGKKIFISEHNYATPNGYGTRTIDMSSAIGKNAQFIYDKKLETPNTGWKTNKYGTLYKSESASFTPNTDIITRTTGPFRSMPQSGVLKAGQTIHYDEVMKQDGHVWVGYTGNSGQRIYLPVRTWNKSTNTLGVLWGTIK",32 µg/mL and 16 µg/mL,32,32,45,6.25 µg/mL and 12.5 µg/mL,32 µg/mL and 16 µg/mL,3 log,2.5 × 10^2 CFU/mL,7 × 10^1 CFU/mL,30,7.8,7.8,7.8,>1000,> 90,99.9
